Assay results: patent US20050234046A1 (Kalypsys, Inc., priority 2004, published 2005)

Experiments:
Experiment in all cases: Transient transfection (transactivation) assay in CV-1 cells, GAL4-PPAR chimera, luciferase reporter
Type in all cases: cell-based
PPAR delta = target: T1, PPAR delta (Homo sapiens, UniProt Q03181)
T1 construct: expressed in transfected cells; host or cells: CV-1 cells
T1 sequence (Q03181 211-439 limits assumed): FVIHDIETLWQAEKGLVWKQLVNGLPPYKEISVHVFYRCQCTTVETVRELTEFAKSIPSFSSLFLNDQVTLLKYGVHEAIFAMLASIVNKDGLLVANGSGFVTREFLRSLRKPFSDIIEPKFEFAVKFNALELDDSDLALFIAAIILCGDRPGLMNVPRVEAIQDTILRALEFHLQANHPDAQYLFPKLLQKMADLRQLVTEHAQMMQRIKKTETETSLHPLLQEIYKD

PPAR alpha = target: T2, PPAR alpha (Homo sapiens, UniProt Q07869)
T2 construct: expressed in transfected cells; host or cells: CV-1 cells
T2 sequence (Q07869 239-466 limits assumed): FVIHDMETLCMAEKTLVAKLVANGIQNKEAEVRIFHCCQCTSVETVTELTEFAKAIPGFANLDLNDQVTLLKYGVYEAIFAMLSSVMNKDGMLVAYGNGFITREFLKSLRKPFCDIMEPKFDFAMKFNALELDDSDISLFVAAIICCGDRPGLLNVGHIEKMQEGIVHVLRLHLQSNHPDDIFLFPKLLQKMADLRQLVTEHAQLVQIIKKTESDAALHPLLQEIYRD
How it was run: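 EC50 and efficacy come from a luciferase read-out after 20-24 hours of compound exposure (vehicle 1% DMSO) in transiently transfected CV-1 cells. These cells express a GAL4-PPAR ligand-binding-domain chimera plus a reporter with four or five GAL4 binding sites, and are kept in phenol-red free DME with 5% delipidated calf serum.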

PPAR gamma = target: T3, PPAR gamma (Homo sapiens, UniProt P37231)
T3 construct: expressed in transfected cells; host or cells: CV-1 cells
T3 sequence (P37231 238-503 limits assumed): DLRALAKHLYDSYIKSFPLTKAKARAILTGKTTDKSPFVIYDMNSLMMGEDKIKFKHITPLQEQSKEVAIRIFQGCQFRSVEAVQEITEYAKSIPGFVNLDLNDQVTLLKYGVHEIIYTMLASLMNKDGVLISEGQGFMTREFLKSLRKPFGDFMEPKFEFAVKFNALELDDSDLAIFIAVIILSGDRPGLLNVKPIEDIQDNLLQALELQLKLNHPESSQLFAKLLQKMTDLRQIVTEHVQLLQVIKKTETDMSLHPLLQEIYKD

| SMILES | EC50 (PPAR delta) | EC50 (PPAR alpha) | EC50 (PPAR gamma) |
| --- | --- | --- | --- |
| Cc1cc(CC(=O)O)cc(S(=O)(=O)N2CCN(c3ccc(F)cc3)CC2)c1 [Example 173, {3-[4-(4-Fluoro-phenyl)-piperazine-1-sulfonyl]-5-methyl-phenyl}-acetic acid] | 5 to 100 µM | > 100 µM | > 100 µM |
| Cc1cc(CC(=O)O)cc(S(=O)(=O)N2CCN(c3ccccc3)CC2)c1 [Example 174, [3-Methyl-5-(4-phenyl-piperazine-1-sulfonyl)-phenyl]-acetic acid] | > 100 µM | > 100 µM | > 100 µM |
| Cc1ccc(S(=O)(=O)N2CCN(c3ccc(Cl)c(Cl)c3)CC2)cc1CC(=O)O [Example 175, {5-[4-(3,4-Dichloro-phenyl)-piperazine-1-sulfonyl]-2-methyl-phenyl}-acetic acid] | < 5 µM | 5 to 100 µM | 5 to 100 µM |
| Cc1ccc(S(=O)(=O)N2CCN(c3ccc(Cl)cc3)CC2)cc1CC(=O)O [Example 176, {5-[4-(4-Chloro-phenyl)-piperazine-1-sulfonyl]-2-methyl-phenyl}-acetic acid] | < 5 µM | > 100 µM | 5 to 100 µM |
| Cc1cccc(N2CCN(S(=O)(=O)c3ccc(C)c(CC(=O)O)c3)CC2C)c1 (stereo not drawn) [Example 177, [2-Methyl-5-(3-methyl-4-m-tolyl-piperazine-1-sulfonyl)-phenyl]-acetic acid] | 5 to 100 µM | > 100 µM | 5 to 100 µM |
| Cc1ccc(S(=O)(=O)N2CCN(CCc3ccccc3)CC2)cc1CC(=O)O [Example 178, [2-Methyl-5-(4-phenethyl-piperazine-1-sulfonyl)-phenyl]-acetic acid] | 5 to 100 µM | > 100 µM | 5 to 100 µM |
| COc1ccc(N2CCN(S(=O)(=O)c3ccc(C)c(CC(=O)O)c3)CC2)cc1OC [Example 179, {5-[4-(3,4-Dimethoxy-phenyl)-piperazine-1-sulfonyl]-2-methyl-phenyl}-acetic acid] | > 100 µM | > 100 µM | > 100 µM |
| Cc1ccc(S(=O)(=O)N2CCN(c3ccc(F)cc3F)CC2)cc1CC(=O)O [Example 180, {5-[4-(2,4-Difluoro-phenyl)-piperazine-1-sulfonyl]-2-methyl-phenyl}-acetic acid] | 5 to 100 µM | > 100 µM | 5 to 100 µM |
| Cc1ccc(S(=O)(=O)N2CCN(c3ccccc3)CC2)cc1CC(=O)O [Example 181, [2-Methyl-5-(4-phenyl-piperazine-1-sulfonyl)-phenyl]-acetic acid] | 5 to 100 µM | > 100 µM | 5 to 100 µM |
| Cc1ccc(S(=O)(=O)N2CCN(c3ccc(C(F)(F)F)cn3)CC2)cc1CC(=O)O [Example 182, {2-Methyl-S-[4-(5-trifluoromethyl-pyridin-2-yl)-piperazine-1-sulfonyl]-phenyl}-acetic acid] | < 5 µM | 5 to 100 µM | < 5 µM |
| Cc1ccc(S(=O)(=O)N2CCN(c3ccc(C(F)(F)F)cc3)CC2)cc1CC(=O)O [Example 183, {2-Methyl-5-[4-(4-trifluoromethyl-phenyl)-piperazine-1-sulfonyl]-phenyl}-acetic acid] | < 5 µM | 5 to 100 µM | 5 to 100 µM |
| O=C(O)Cc1cccc(S(=O)(=O)N2CCC(c3ccc(Cl)cc3)CC2)c1 [Example 184, {3-[4-(4-Chloro-phenyl)-piperidine-1-sulfonyl]-phenyl}-acetic acid] | 5 to 100 µM | > 100 µM | > 100 µM |
| Cc1cc(CC(=O)O)cc(S(=O)(=O)N2CCC(c3ccc(Cl)cc3)CC2)c1 [Example 185, {3-[4-(4-Chloro-phenyl)-piperidine-1-sulfonyl]-5-methyl-phenyl}-acetic acid] | 5 to 100 µM | > 100 µM | 5 to 100 µM |
| O=C(O)CCc1cccc(S(=O)(=O)N2CCN(c3ccc(Cl)c(Cl)c3)CC2)c1 [Example 186, 3-{3-[4-(3,4-Dichloro-phenyl)-piperazine-1-sulfonyl]-phenyl}-propionic acid] | < 5 µM | > 100 µM | 5 to 100 µM |
| O=C(O)CCc1cccc(S(=O)(=O)N2CCN(c3ccc(Cl)cc3)CC2)c1 [Example 187, 3-{3-[4-(4-Chloro-phenyl)-piperazine-1-sulfonyl]-phenyl}-propionic acid] | < 5 µM | > 100 µM | 5 to 100 µM |
| O=C(O)COc1cccc(S(=O)(=O)N2CCN(c3ccc(Cl)c(Cl)c3)CC2)c1 [Example 188] | 5 to 100 µM | > 100 µM | > 100 µM |
| CC(C)(Oc1cccc(S(=O)(=O)N2CCN(c3ccc(Cl)c(Cl)c3)CC2)c1)C(=O)O [Example 189, 2-{3-[4-(3,4-Dichloro-phenyl)-piperazine-1-sulfonyl]-phenoxy}-2-methyl-propionic acid] | > 100 µM | > 100 µM | 5 to 100 µM |
| O=C(O)COc1cccc(S(=O)(=O)N2CCN(c3ccc(C(F)(F)F)cc3)CC2)c1 [Example 190, {3-[4-(4-Trifluoromethyl-phenyl)-piperazine-1-sulfonyl]-phenoxy}-acetic acid] | 5 to 100 µM | > 100 µM | > 100 µM |
| CC(C)(Oc1cccc(S(=O)(=O)N2CCN(c3ccc(C(F)(F)F)cc3)CC2)c1)C(=O)O [Example 191, 2-Methyl-2-{3-[4-(4-trifluoromethyl-phenyl)-piperazine-1-sulfonyl]-phenoxy}-propionic acid] | 5 to 100 µM | 5 to 100 µM | 5 to 100 µM |
| C[C@@H]1CN(c2ccc(OC(F)(F)F)cc2)C[C@H](C)N1S(=O)(=O)c1ccc(O)c(CCC(=O)O)c1 [Example 192, 3-{5-[2,6-Dimethyl-4-(4-trifluoromethoxy-phenyl)-piperazine-1-sulfonyl]-2-hydroxy-phenyl}-propionic acid] | 5 to 100 µM | > 100 µM | > 100 µM |
| C[C@@H]1CN(c2ccc(C(F)(F)F)cn2)C[C@H](C)N1S(=O)(=O)c1ccc(O)c(CCC(=O)O)c1 [Example 193, 3-{5-[2,6-Dimethyl-4-(5-trifluoromethyl-pyridin-2-yl)-piperazine-1-sulfonyl]-2-hydroxy-phenyl}-propionic acid] | 5 to 100 µM | > 100 µM | > 100 µM |
| COc1ccc(S(=O)(=O)N2[C@H](C)CN(c3ccc(C(F)(F)F)cn3)C[C@@H]2C)cc1CCC(=O)O [Example 194, 3-{5-[2,6-Dimethyl-4-(5-trifluoromethyl-pyridin-2-yl)-piperazine-1-sulfonyl]-2-methoxy-phenyl}-propionic acid] | < 5 µM | > 100 µM | > 100 µM |
| Cc1cc(CC(=O)O)cc(S(=O)(=O)N2[C@@H](C)CN(c3ccc(C(F)(F)F)cn3)C[C@@H]2C)c1 [Example 195, {3-[2,6(S,S)-Dimethyl-4-(5-trifluoromethyl-pyridin-2-yl)-piperazine-1-sulfonyl]-5-methyl-phenyl}-acetic acid] | < 5 µM | 5 to 100 µM | 5 to 100 µM |
| Cc1cc(S(=O)(=O)N2CCN(c3ccc(C(F)(F)F)cn3)CC2)cc(CC(=O)O)c1Br [Example 196, {2-Bromo-3-methyl-5-[4-(5-trifluoromethyl-pyridin-2-yl)-piperazine-1-sulfonyl]-phenyl}-acetic acid] | < 5 µM | 5 to 100 µM | < 5 µM |
| Cc1cc(S(=O)(=O)N2[C@H](C)CN(c3ccc(C(F)(F)F)cn3)C[C@@H]2C)cc(CC(=O)O)c1Br [Example 197, {2-Bromo-5-[2,6-dimethyl-4-(5-trifluoromethyl-pyridin-2-yl)-piperazine-1-sulfonyl]-3-methyl-phenyl}-acetic acid] | < 5 µM | > 100 µM | 5 to 100 µM |
| Cc1cc(S(=O)(=O)N2[C@H](C)CN(c3ccc(OC(F)(F)F)cc3)C[C@@H]2C)cc(CC(=O)O)c1Br [Example 198, {2-Bromo-5-[2,6-dimethyl-4-(4-trifluoromethoxy-phenyl)-piperazine-1-sulfonyl]-3-methyl-phenyl}-acetic acid] | < 5 µM | 5 to 100 µM | 5 to 100 µM |
| O=C(O)Cc1cc(Br)cc(S(=O)(=O)N2CCN(c3ccc(C(F)(F)F)cn3)CC2)c1 [Example 199, {3-Bromo-5-[4-(5-trifluoromethyl-pyridin-2-yl)-piperazine-1-sulfonyl]-phenyl}acetic acid] | < 5 µM | 5 to 100 µM | 5 to 100 µM |
| C[C@@H]1CN(c2ccc(OC(F)(F)F)cc2)C[C@H](C)N1S(=O)(=O)c1cc(Br)cc(CC(=O)O)c1 [Example 200, {3-Bromo-5-[2,6-dimethyl-4-(4-trifluoromethoxy-phenyl)-piperazine-1-sulfonyl]-phenyl}-acetic acid] | < 5 µM | 5 to 100 µM | 5 to 100 µM |
